# Laboratory results taken from patent publication US20180345047A1, “METHOD OF PROMOTING HAIR GROWTH” (Yeda Research and Development Co. Ltd., priority 2015, published 2018).
# What was measured:
# [1] = test system: hair-follicle stem cells in the bulge; experiment: Hair-follicle bulge stem cell proliferation and number in p14ARF-expressing mice (Ki67/K15 stain, CD34/CD49f FACS); assay type: in vivo, K5-rtTA/tet-p14 mice; settings: vs vehicle
# Procedure: (§1) Mouse experiments: K5-rtTA/tet-p14, described in (Toakrsly-Amiel et al.) were held on a mixed C57B1/129sv background. Mice received doxycycline (2 mg/ml) in the drinking water at 3 weeks of age for activation of the p14ARF transgene. Sibling tet-p14 single transgene control mice received doxycycline for the same period. After four weeks of transgene activation, ABT-737 (75 mg/kg in 30% propylene glycol, 5% Tween 80, 3.3% dextrose in water pH 4-5) or vehicle was injected into p14ARF-expressing mice intraperitoneally for 2 or 4 consecutive days. Mice were then shaved, sacrificed and back skins were paraffin embedded for immunohistology or frozen in OCT solution for cryosectioning and SA-β-gal stains.
# Immunohistology: Immunohistology was performed according to standard procedures on 5 μm paraffin sections, using Peroxidase Substrate kits (Vector) or fluorescently labeled secondary antibodies (Jackson). Antibodies used: p14ARF (Abcam), CC3 (Cell Signaling), Ki67 (Labvision) and K15 (Santa Cruz). For Senescence-associated β-Galactosidase (SA-β-gal) stains, 10-12 μm cryosections of OCT-embedded mouse skins were fixed in 0.5% glutaraldehyde for 15 minutes, stained over night at 37° C. with 40 mM phosphate buffer pH=6 with 5 mM K4Fe(CN)6, 5 mM K3Fe(CN)6, 150 mM NaCl, 2 mM MgCl2 and 1 mg/ml X-gal, washed in PBS, fixed in 95% ethanol for 15 minutes, counterstained with nuclear fast red, dehydrated and mounted. Bright field images were collected using an Olympus CX41 and DS-Fi1 camera and processed using NIS Elements software (Nikon). Fluorescent images were taken using an Olympus FV1000 confocal microscope. Positive cells were scored from >10 microscopic fields in each sample either by direct microscopic observation (SA-β-gal, p14) or on collected images (all other stains).
# Upon p14^ARF activation in mice at 3 weeks of age nearly all hair follicles are arrested in the resting (telogen) state, and only rare stem cells in the bulge express the proliferation marker Ki67^36 (FIGS. 5H-I). […] This effect was also evident three days after treatment was stopped (FIGS. 2A-B). […]
# [2] = test system: senescent epidermal cells; experiment: Elimination of senescent cells in the skin epidermis of p14ARF-expressing mice (SA-β-Gal, p14ARF, cleaved caspase-3 stains); assay type: in vivo, K5-rtTA/tet-p14 mice; settings: 75 mg/kg intraperitoneally
# Procedure: as §1
# Immunohistology: Immunohistology was performed according to standard procedures on 5 μm paraffin sections, using Peroxidase Substrate kits (Vector) or fluorescently labeled secondary antibodies (Jackson). Antibodies used: p14ARF (Abcam), CC3 (Cell Signaling), Ki67 (Labvision) and K15 (Santa Cruz). […] Positive cells were scored from >10 microscopic fields in each sample either by direct microscopic observation (SA-β-gal, p14) or on collected images (all other stains).
# The present inventors set out to test whether the survival signals provided by Bcl-2 family members are necessary for the survival and retention of senescent cells in tissues. […] Concomitantly, the percentage of epidermal cells in which the transgenic p14^ARF protein could be detected was reduced (FIGS. 1D-E), indicating preferred elimination of transgene-expressing cells. Increased levels of apoptosis were detected in the epidermis after 2 days of ABT-737 treatment (FIGS. 1F-G), consistent with increased apoptosis as the mechanism of senescent cell elimination. […]
structure (smiles),measurement,setting,value
CN(C)CC[C@H](CSc1ccccc1)Nc1ccc(S(=O)(=O)NC(=O)c2ccc(N3CCN(Cc4ccccc4-c4ccc(Cl)cc4)CC3)cc2)cc1[N+](=O)[O-] [ABT-737],number of CD34+/CD49f high bulge stem cells,[1]; FACS of epidermal cells after 2 days of treatment,increased
same,increase in proliferating (Ki67+) hair-follicle stem cells in the bulge after end of treatment,"[1]; treated 2 days, three days after treatment was stopped",also evident
same,numbers of proliferating (Ki67+) hair-follicle stem cells in the bulge,"[1]; treatment after 2-4 weeks of p14ARF induction, 75 mg/kg intraperitoneally",increase
same,"number of senescent cells in the epidermis, determined by SA-β-Gal staining","[2]; 4 consecutive days, after 4 weeks p14ARF activation, relative to vehicle-treated mice",dramatically reduced
same,percentage of epidermal cells in which the transgenic p14ARF protein could be detected,"[2]; 2 day treatment, vs vehicle",reduced
same,levels of apoptosis in the epidermis (cleaved caspase-3),"[2]; after 2 days of treatment, vs vehicle",Increased
